Results taken from patent US8389521B2, “Inhibitors of protein kinases” (Ingenium Pharmaceuticals GmbH, priority 2007, dated 2013).

Experiments:
[1] = system: Tau phosphorylation at Serin396 in differentiated SH-SY5Y cells; experiment: In vitro SH-SY5Y assay using tau phosphorylation; format: cell-based, human; settings: RA- and BDNF-differentiated SH-SY5Y cells, 90-120 min incubation, Western Blot or ELISA
Description: The human neuroblastoma cell line SH-SY5Y can be utilized as an in vitro model to investigate CDK5 function and the efficacy of CDK5 specific inhibitors. SH-SY5Y cells express tau protein which harbors various phosphorylation sites known to be phosphorylated by several kinases including CDK5. SH-SY5Y cells can be differentiated into neuron-like cells by exposure to 10 μM all trans-retinoic acid for 3 days and subsequent exposure to 50 ng/ml human recombinant brain-derived neurotrophic factor for 3-5 days, thereby upregulating neuronal markers, including tau protein. In addition CDK5 and p35 protein levels were increased during differentiation. RA-BDNF-differentiated cells can therefore serve as a suitable model for studying tau phosphorylation and to screen potential CDK5 inhibitors (Jämsä et al., 2004. BBRC 319; 993-1000). […]
Concentrations of total tau, pS396 tau and pT231 tau within the cell culture lysates are measured by using commercial ELISA Kits (BioSource: human total tau: KHB0042; human pS396 tau: KHB7031; human pT231 tau: KHB7051) according to the manufacturers instructions or by using Western Blots probing with total and phospho-specific antibodies (antibodies: total tau: Santa Cruz, sc-21796; pS396 tau: Santa Cruz, sc-12414; pT231 tau, AT180: Pierce Endogen, MN1040; pS202 tau: AT8: Pierce Endogen, MN1020). […]

Row | melting point | Compound | inhibitory effect on Tau phosphorylation at Serin396 [1]
1 | 213.5 to 215.1 °C | CCOc1ccccc1-c1cc(Nc2ccc(CS(N)(=O)=O)cc2)ncn1 [Compound 6, {4-[6-(2-Ethoxy-phenyl)-pyrimidin-4-ylamino]-phenyl}-methanesulfonamide] | 
2 |  | NS(=O)(=O)Cc1ccc(Nc2cc(-c3ccccc3OCc3ccccc3)ncn2)cc1 [Compound 8, {4-[6-(2-Benzyloxy-phenyl)-pyrimidin-4-ylamino]-phenyl}-methanesulfonamide] | significant inhibitory effect
3 | 149.2 to 150.8 °C | COCCCNS(=O)(=O)Cc1cccc(Nc2cc(-c3ccccc3OC)ncn2)c1 [Reference Compound 3, C-{3-[6-(2-methoxy-phenyl)-pyrimidin-4-ylamino]-phenyl}-N-(3-methoxy-propyl)-methanesulfonamide] | 
